This is an account of results in PMC11741115, “New Hydrogenated Phenanthrene Glycosides from the Edible Vegetable Elatostema tenuicaudatum W.T.Wang with DPP-IV Inhibitory and Hepatoprotective Activity” (Journal of Agricultural and Food Chemistry, 2025).

One assay deals with HepG2 cells. In words: Hepatoprotective effect against acetaminophen-induced hepatotoxicity in HepG2 cells (MTT). It is filed as cell-based, Human. As to conditions: for viability at 50 µM: Homo sapiens, HepG2, 50 μM compound, pretreated 8 h, 6 mM APAP for 36 h, MTT, read-out: cell viability (cytoprotection against APAP). As for the experimental part:
Human hepatocellular carcinoma HepG2 cells were obtained from the Bioresource Collection and Research Center (BCRC, Hsinchu, Taiwan). Cells culture was conducted with a complete medium consisting of DMEM (Dulbecco's Modified Eagle Medium, Gibco), 10% (v/v) fetal bovine serum (FBS) (Gibco), and 1% (v/v) antibiotic -antimycotic […] (Gibco, 15240062). Upon reaching at 80% confluence, cells were rinsed with PBS and detached using trypsin -EDTA (Gibco, 25200072) at 37 °C for 5 minutes. Subsequently, cells were seeded into specialized 96 -well plates (3 × 10^4/well, 100 µL/well) and incubated for 24 hours at 37 °C with 5% CO2. […]
control cells were used as a reference under the same conditions. The maximum absorbance value depended on the solvent used in the sample solution, and the percentage viability of cells was determined using the formula: […]. […]
3.9.2. Assess hepatoprotective effects of compounds […]
using an acetaminophen-induced hepatotoxicity HepG2 model. Cells were initially seeded in 96 -well plates at a density of 3 × 10^4 cells/well and then incubated under identical conditions with 5% CO 2 for 24 hours. Following this, cells were exposed to the test samples. After 8 hours, hepatotoxicity was induced using acetaminophen (Sigma Aldrich, A7085) at a concentration of 6 mM. The protective effects were assessed by determining cell viability using the MTT method 36 hours post - acetaminophen induc tion. Silymarin (at concentration of 50 μg/mL) was used as positive control. […]

The next assay concerns the target T1, DPP-IV (Homo sapiens, UniProt P27487).
T1 construct: purchased BioVision K779-100
The assay is described as follows: DPP-IV inhibition activity (DPP-IV Activity Assay Kit, AMC fluorescence). It is filed as biochemical. As to conditions: for IC50: pure compounds; for DPP-IV inhibition (in words): summary. As for the experimental part:
2.7. DPP-IV inhibition activity
A commercially available DPP -IV Activity Assay Kit (K779 -100, BioVision) was employed to evaluate DPP-IV activity. The procedures were conducted according to the manufacturer’s instructions. DPP-IV enzymatically cleaves substrates, leading to the release o f the quenched fluorescent group AMC (7 -Amino-4-Methyl Coumarin). AMC detection was measured with a fluorescence reader at Ex/Em = 360/460 nm. […]

SMILES strings stand for the structures.

T1 sequence (P27487 whole entry, species assumed): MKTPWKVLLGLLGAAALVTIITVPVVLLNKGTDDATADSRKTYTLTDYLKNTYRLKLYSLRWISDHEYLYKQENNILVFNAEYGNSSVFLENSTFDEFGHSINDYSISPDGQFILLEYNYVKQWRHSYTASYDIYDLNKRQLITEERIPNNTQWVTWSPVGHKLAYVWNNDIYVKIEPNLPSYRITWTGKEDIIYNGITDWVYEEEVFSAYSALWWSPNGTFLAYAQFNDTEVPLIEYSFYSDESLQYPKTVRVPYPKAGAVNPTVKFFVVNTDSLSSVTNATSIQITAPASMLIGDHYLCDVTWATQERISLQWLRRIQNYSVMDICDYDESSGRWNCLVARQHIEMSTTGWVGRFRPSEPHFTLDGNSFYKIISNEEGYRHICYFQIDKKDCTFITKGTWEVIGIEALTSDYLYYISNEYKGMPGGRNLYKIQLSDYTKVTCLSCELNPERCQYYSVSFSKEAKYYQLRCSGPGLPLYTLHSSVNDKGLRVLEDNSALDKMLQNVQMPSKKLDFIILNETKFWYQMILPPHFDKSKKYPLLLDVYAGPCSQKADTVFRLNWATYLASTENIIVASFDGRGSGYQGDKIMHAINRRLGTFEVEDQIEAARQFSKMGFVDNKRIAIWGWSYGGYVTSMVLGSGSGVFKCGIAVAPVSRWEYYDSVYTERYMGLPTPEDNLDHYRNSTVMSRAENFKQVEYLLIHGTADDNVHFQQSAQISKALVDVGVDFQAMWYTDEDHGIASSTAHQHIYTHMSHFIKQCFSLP

As for `COc1cc2c(cc1O[C@@H]1O[C@H](CO)[C@@H](O)[C@H](O)[C@H]1O)[C@@]1(O)C(=O)C=CC[C@@H]1CC2` [Compound 9, elatostemanoside I], in the assay on HepG2 cells, the “hepatoprotective effect in acetaminophen-induced hepatotoxicity in HepG2 (in words)” value (“hepatoprotective effect” below) was “significant hepatoprotective effects” and the viability (as a rule, the share of living cells, or the viability signal relative to a control) at 50 µM turned out to be 82.6%.
In the case of `COc1cc2c(cc1O[C@@H]1O[C@H](CO)[C@@H](O)[C@H](O)[C@H]1O)[C@@]1(OC)C(=O)C=CC[C@@H]1CC2` [Compound 10, elatostemanoside J], the inhibition (usually the drop in the measured response relative to a control, in per cent) at 400 µM at DPP-IV was more than 50%.
`COc1cc2c(cc1O[C@@H]1O[C@H](CO)[C@@H](O)[C@H](O)[C@H]1O)[C@@]1(O)C(=O)C[C@H](O)C[C@H]1CC2` [Compound 5, elatostemanoside E]: at DPP-IV, the inhibition at 150 µM was not below 50%; the inhibition at 400 µM was more than 50%; the half-maximal inhibitory concentration (IC50) – broadly, the concentration that gives 50% inhibition – is 142 ± 15.6 µM; the “DPP-IV inhibition (in words)” value is reported as “weak effects”.
On to `COc1cc2c(cc1O[C@@H]1O[C@H](CO)[C@@H](O)[C@H](O)[C@H]1O)[C@@]1(O)C(=O)[C@@H](O)[C@H](O)C[C@H]1CC2` [Compound 8, elatostemanoside H], for which, at DPP-IV, the inhibition at 150 µM is not below 50%, the inhibition at 400 µM is more than 50%, the half-inhibitory concentration (IC50) was 108 ± 19.6 µM and the “DPP-IV inhibition (in words)” value was “weak effects”.
Turning to `OC[C@H]1O[C@@H](Oc2cc3c(cc2O)CCc2cccc(O)c2-3)[C@H](O)[C@@H](O)[C@@H]1O` [Compound 14, 7,4-dihydroxy-9,10-dihydrophenanthrene 6-O-β-D-glucopyranoside], at DPP-IV, the inhibition at 150 µM is not below 50%, the inhibition at 400 µM is more than 50%, the IC50 stood at 71.9 ± 8.9 µM and the “DPP-IV inhibition (in words)” value is recorded as “moderate inhibition”. In addition, in the assay with HepG2 cells, the “hepatoprotective effect” value is on record as “significant hepatoprotective effects” and the viability at 50 µM stood at 78.8%.
As to `COc1cc2c(cc1OC1OC(CO)C(O)C(O)C1O)C1(O)C(=O)CC(C3=CCC4CCc5cc(OC)c(OC6OC(CO)C(O)C(O)C6O)cc5C4(O)C3=O)CC1CC2` (centres unmarked) [Compound 16, elatostemanoside P], the inhibition at 400 µM against DPP-IV is more than 50%.
Regarding `COc1cc2c(cc1O[C@@H]1O[C@H](CO[C@@H]3O[C@@H](C)[C@H](O)[C@@H](O)[C@H]3O)[C@@H](O)[C@H](O)[C@H]1O)-c1c(O)cccc1CC2` [Compound 15, elatostemanoside O], the inhibition at 400 µM at DPP-IV was more than 50%.
Regarding `COc1cc2c(cc1O[C@@H]1O[C@H](CO)[C@@H](O)[C@H](O)[C@H]1O)[C@@]1(O)C(=O)C[C@@H](O)C[C@H]1CC2` [Compound 6, elatostemanoside F], at DPP-IV, the inhibition at 150 µM is not below 50%, the inhibition at 400 µM is more than 50%, the IC50 is 151 ± 11.8 µM and the “DPP-IV inhibition (in words)” value is reported as “weak effects”.
On to `COc1cc2c(cc1O[C@@H]1O[C@H](CO)[C@@H](O)[C@H](O)[C@H]1O)[C@@]1(O)C(=O)C[C@H](O)C[C@@H]1CC2` [Compound 1, elatostemanoside A], for which the inhibition at 400 µM against DPP-IV was more than 50%. In the assay with HepG2 cells, the “hepatoprotective effect” value is “significant hepatoprotective effects” and the viability at 50 µM was 85.6%.
Take `COc1cc2c(cc1O[C@@H]1O[C@H](CO)[C@@H](O)[C@H](O)[C@H]1O)[C@@]1(O)C(=O)C=CC[C@H]1CC2` [Compound 11, elatostemanoside K]: in the assay on HepG2 cells, the “hepatoprotective effect” value is on record as “significant hepatoprotective effects” and the viability at 50 µM amounted to 81.6%.
`COc1cc2c(cc1O[C@@H]1O[C@H](CO)[C@@H](O)[C@H](O)[C@H]1O)[C@@]1(O)C(=O)C[C@@H](O)C[C@@H]1CC2` [Compound 2, elatostemanoside B] returned an inhibition at 400 µM against DPP-IV of more than 50%.
